Key:
[1] = test system: IGF-I levels; assay: Peak IGF-I levels in males and females before and after administration; assay type: in vivo, human
Description: IGF-I is directly dependent upon the secretion of HGH by the pituitary gland, so therefore there is a direct linkage between increased secretion of HGH and increased production of IGF-I. Table II presents the effects of the low dose at high frequency human growth hormone administration (low dose-high frequency) contemplated by the invention on IGF-I (somatomedin C) blood levels. FIGS. 8 and 9 present the peak IGF-I levels in males and females, respectively, before and after administration of […]. FIGS. 8 and 9 show mean, minimum and maximum, and 25, 50, and 75 percentile for 204 males and 91 females, respectively.
The method of determining the level of the select group of hormones may be accomplished by a simple blood test. A patients' blood is evaluated for the hormone levels of the select group of hormones and those levels are compared to the optimal or predetermined physiological levels set forth in Table I. Based on the comparison of a patient's hormone levels with the optimal or predetermined physiological levels, a regimen is established for the patient for the replenishment of the level of deficient hormones to optimal physiological levels. It is further contemplated, that after the initial evaluation and the establishment of the regimen, a patient is monitored every 30 days, by a similar blood test, until the patient attains the optimal or predetermined physiological level, and the dosages of hormone supplementation are adjusted accordingly. Once the target levels are established, the regimen directs that the patient continue to follow the established dosage of supplemental hormones indefinitely to maintain the optimal or predetermined physiological levels. Periodic blood tests are subsequently administered to assure that the optimal or predetermined physiological levels are maintained.

[2] = test system: adult female mice having induced EAE; conditions: 0.6 mg subcutaneously over a ten day period; vs placebo; cited from earlier work
[3] = test system: Somatomedin C Blood Levels; assay: Somatomedin C blood levels before and after low dose-high frequency human growth hormone administration; assay type: in vivo; conditions: 47 patients; after vs before hGH
Description: IGF-I is directly dependent upon the secretion of HGH by the pituitary gland, so therefore there is a direct linkage between increased secretion of HGH and increased production of IGF-I. Table II presents the effects of the low dose at high frequency human growth hormone administration (low dose-high frequency) contemplated by the invention on IGF-I (somatomedin C) blood levels. FIGS. 8 and 9 present the peak IGF-I levels in males and females, respectively, before and after administration of […]. FIGS. 8 and 9 show mean, minimum and maximum, and 25, 50, and 75 percentile for 204 males and 91 females, respectively. The method of the invention also contemplates that the HGH is administered in keeping with the way the pituitary secretes HGH naturally. The low dose-high frequency method mimics the pituitary gland. The pituitary secretes HGH 24 hours a day, with the peaks during the first two hours of sleep. The method contemplates that the patients take lower doses more frequently to try to mimic the natural rhythm of the body as much as possible. The invention contemplates that the patients take HGH injections at least twice daily. A preferred regimen calls for subcutaneous injections of doses less than 0.5 mg per day (approximately 1-3 I.U.), administered twice daily. Typical doses for this regimen range from 4 units per week to 8 units per week.

Substance: Insulin-like Growth Factor-I [IGF-I]
- Peak IFG levels FEMALES CHANGE, 25%ile ([1]; 91 females): 26
- Peak IFG levels FEMALES CHANGE, 50%ile ([1]; 91 females): 72
- Peak IFG levels FEMALES CHANGE, 75%ile ([1]; 91 females): 128
- Peak IFG levels FEMALES CHANGE, MAX ([1]; 91 females): 231
- Peak IFG levels FEMALES CHANGE, MEAN ([1]; 91 females): 74.0
- Peak IFG levels FEMALES CHANGE, MEDIAN ([1]; 91 females): 72
- Peak IFG levels FEMALES CHANGE, MIN ([1]; 91 females): −93
- Peak IFG levels FEMALES AFTER, 25%ile ([1]; 91 females, before 111): 177
- Peak IFG levels FEMALES AFTER, 50%ile ([1]; 91 females, before 164): 240
- Peak IFG levels FEMALES AFTER, 75%ile ([1]; 91 females, before 205): 294
- Peak IFG levels FEMALES AFTER, MAX ([1]; 91 females, before max 311): 378
- Peak IFG levels FEMALES AFTER, MEAN ([1]; 91 females, before mean 162.2, mean 133.4 days): 236.3
- Peak IFG levels FEMALES AFTER, MEDIAN ([1]; 91 females, before median 154): 240
- Peak IFG levels FEMALES AFTER, MIN ([1]; 91 females, before min 41): 52
- Peak IFG levels MALES CHANGE, 25%ile ([1]; 204 males): 24
- Peak IFG levels MALES CHANGE, 50%ile ([1]; 204 males): 76
- Peak IFG levels MALES CHANGE, 75%ile ([1]; 204 males): 125
- Peak IFG levels MALES CHANGE, MAX ([1]; 204 males): 258
- Peak IFG levels MALES CHANGE, MEAN ([1]; 204 males): 74.4
- Peak IFG levels MALES CHANGE, MEDIAN ([1]; 204 males): 75.5
- Peak IFG levels MALES AFTER, 25%ile ([1]; 204 males, before 147): 217
- Peak IFG levels MALES AFTER, 50%ile ([1]; 204 males, before 183): 273
- Peak IFG levels MALES AFTER, 75%ile ([1]; 204 males, before 231): 325
- Peak IFG levels MALES AFTER, MAX ([1]; 204 males, before max 361): 396
- Peak IFG levels MALES AFTER, MEAN ([1]; 204 males, before mean 192.3, mean 118.5 days): 266.7
- Peak IFG levels MALES AFTER, MEDIAN ([1]; 204 males, before median 183): 272.5
- Peak IFG levels MALES AFTER, MIN ([1]; 204 males, before min 21): 63
- Clinical deficits in EAE mice [2]: reduced deficits
- Lesions in EAE mice [2]: reduced numbers and sizes of inflammatory, demyelinating and demyelinated lesions

Substance: human growth hormone [hGH]
- Somatomedin C Blood Levels Increase, Mean [3]: 61.0%
